{"source": "paper PMC10600239", "about": "“Selective MCL-1 inhibitor ABBV-467 is efficacious in tumor models but is associated with cardiac troponin increases in patients” (Communications Medicine, 2023)", "key": {"[1]": {"assay": "Phase 1 first-in-human study (NCT04178902): efficacy (IMWG criteria, immunoglobulin, free light chain)", "assay_type": "in vivo", "conditions": "for Kappa Lt Chain,Free/Lambda Lt Chain,Free / Immunoglobulin G: patient; for Kappa Lt Chain,Free/Lambda Lt Chain,Free: normal range 0.22-1.52; for Immunoglobulin G: normal range 5.65-17.65", "excerpt": "This FIH study (NCT04178902) for ABBV-467 was a multicenter, open-label, dose-escalation study enrolling patients aged ≥18 years who had R/R MM, with the option to enroll R/R AML once recommended phase 2 dose (RP2D) was established. The study design was originally planned to consist of 2 parts: dose escalation and dose expansion, including a minimum of 6 patients treated during dose escalation at what was ultimately to be declared the RP2D. Patients must have received 3 or more prior lines of therapy including at least 1 or more immunomodulatory agents, 1 or more proteasome inhibitors, and 1 or more anti-CD38 monoclonal antibodies. Other eligibility criteria included: Eastern Cooperative Oncology Group performance status ≤2, measurable disease as defined by International Myeloma Working Group (IMWG) consensus criteria, an echocardiogram with an ejection fraction ≥50%, and adequate hematologic, hepatic, and renal function. The prespecified primary objectives were to characterize the safety and toxicity profiles, to establish the RP2D, and to determine the pharmacokinetic (PK) profile of ABBV-467 monotherapy. Safety evaluations included, but were not limited to, adverse event (AE) monitoring, physical examinations, vital sign measurements, electrocardiogram (ECG), cardiac enzyme monitoring, and clinical laboratory testing (hematology and chemistry) as a measure of safety and tolerability for the entire study duration. Parameters used to determine PK included maximum observed plasma concentration (Cmax), terminal elimination half-life (t1/2), area under the plasma concentration-time curve (AUC) from time 0 to time of last measurable concentration (AUCt), AUC from time 0 to infinity (AUC0-∞), and clearance using non-compartmental methods. Secondary objectives were preliminary evaluation of the efficacy of ABBV-467 in R/R MM and R/R AML. Preliminary efficacy endpoints were overall response rate (ORR), clinical benefit rate (CBR), and duration of response (DOR) as evaluated per adapted IMWG[36] criteria for MM and per adapted International Working Group (IWG)[37] and European Leukemia Net (ELN)[38] criteria for AML."}, "SU-DHL-1 cells": {"tested_on": "SU-DHL-1 cells", "assay": "Cell viability of BAK-deficient and parental SU-DHL-1 cells (CellTiter-Glo)", "assay_type": "cell-based", "conditions": "SU-DHL-1, 24 hr", "method": "Supplementary Fig . S4: BAK is required for ABBV-467 ac tiv ity in S U-DHL-1 cells. BAK-deficient SU- D HL -1\ncells were treated with ABBV-4 67 fo r 24 hr at the indicated concentrations and the impact on cell\nviability compared to the parental cell line determined by CellTiter- G lo . N=3 .\n(1 picture or pasted object on this page, not shown here)"}, "AMO-1 cells": {"tested_on": "AMO-1 cells", "assay": "In vitro cell viability assay (CellTiter-Glo)", "assay_type": "cell-based, human", "design": "Cell viability after compound washout (CellTiter-Glo): scale not given here", "conditions": "for Cell viability after compound washout (CellTiter-Glo): AMO-1, replicates", "method": "All cell lines were grown and treated in RPMI 1640 or Dulbecco’s modified Eagle medium (Sigma, St. Louis, MO) supplemented with 10% fetal bovine serum (Gibco) or 10% human serum (Sigma) and maintained in a humidified incubator at 5% CO2 and 37 °C. DLD-1, MV4-11, NCI-H929 (all ATCC, Manassas, VA, USA) and AMO-1 (DSMZ, Braunschweig, Germany) cells were plated 4000 cells per well in 384-well tissue culture plates and treated with compounds of interest for 24 h at 37 °C, 5% CO2 humidified incubator. Each concentration was tested in duplicate at least 3 separate times. Adherent cells were allowed to adhere overnight prior to treatment. Alternatively, AMO-1 or NCI-H929 cells were treated with ABBV-467 for the indicated contact times (1–24 h) at 37 °C in a 5% CO2 humidified incubator and washed 3 times with compound-free media prior to incubation for the remainder of a 24-h treatment period. Cell viability was subsequently determined using CellTiter-Glo (Promega, Madison, WI, USA) according to the manufacturer’s instructions.\nFor in vitro viability assays, mean EC50 and EC90 values were determined from the resulting dose-response curves from at least 3 independent experiments, and depict the mean ± standard error of the mean.\nFig. 2 Apoptosis induced by ABBV-467 is mechanism based and induces cell death in MCL-1-dependent cell lines after short target engagement periods. H929 cells were treated with ABBV-467 in the presence or absence of the pan-caspase inhibitor z-VAD-fmk (50 µM) and the impact on caspase-3/7 activation (a), mitochondrial membrane potential (ΔΨm; b), and apoptosis (c) determined. Alternatively, BAK-deficient SKBR3 cells were treated with ABBV-467 for 24 h and the impact on cell viability compared with the parental cell line, determined by CellTiter-Glo. Inset depicts a western blot of BAK and BAX expression in SKBR3 cell variants using GAPDH as a loading control. Each of the 3 proteins were probed on separate blots (d). Data in (a–d) are presented as the mean ± standard error of the mean. H929 and AMO-1 cells were treated with ABBV-467 at the indicated concentrations and the impact on caspase-3/7 activation and viability (DRAQ7-positive) cells determined over time by Incucyte®. Data are presented as the mean ± standard deviation (e). H929 or AMO-1 cells were cultured in media containing 10% human serum and treated with ABBV-467 for the indicated contact times. Cells were subsequently washed 3 times with drug-free media and incubated in drug-free media for the remainder of the 24-h treatment period at 37 °C before cell viability was determined by CellTiter-Glo. Mean EC50 and EC90 values were determined from the resulting dose-response curves from at least 3 independent experiments, each assessed in quadruplicate, and depict the mean ± standard error of the mean. Presented ABBV-467 dose-response curves in H929 and AMO-1 cells were compiled from at least 3 independent experiments (f)."}}, "note": "pEC50: −log10 of the molar value. Where “and” joins values, the source holds several entries; their conditions need not be identical. Identical values can stand only once. Like-named read-outs stand apart in the source and are kept apart here.", "data": [{"smiles": "Cc1c(Cl)c2c(Cl)c(C)c1-c1c(-c3ccc(F)cc3)sc3ncnc(c13)O[C@@H](C(=O)O)Cc1cc(ccc1OCc1ccnc(-c3ccc(OC[C@H]4COCCO4)cc3)n1)OC[C@@H](CN1CCN(C)CC1)O2", "note": "[ABBV-467]", "values": [{"measurement": "duration of stable disease", "setting": "[1]; 1 patient, […] dose level", "result": "approximately 8 months"}, {"measurement": "objective responses", "setting": "[1]; 8 patients with R/R MM", "result": "No objective responses"}, {"measurement": "Kappa Lt Chain,Free/Lambda Lt Chain,Free", "setting": "[1]; LBDY 1", "result": 31.35, "unit": "RATIO"}, {"measurement": "Immunoglobulin G", "setting": "[1]; LBDY 1", "result": 28.1, "unit": "g/L"}, {"measurement": "Kappa Lt Chain,Free/Lambda Lt Chain,Free", "setting": "[1]; LBDY 29", "result": 25.56, "unit": "RATIO"}, {"measurement": "Immunoglobulin G", "setting": "[1]; LBDY 29", "result": 26.9, "unit": "g/L"}, {"measurement": "Kappa Lt Chain,Free/Lambda Lt Chain,Free", "setting": "[1]; LBDY 57", "result": 23.38, "unit": "RATIO"}, {"measurement": "Immunoglobulin G", "setting": "[1]; LBDY 57", "result": 23.3, "unit": "g/L"}, {"measurement": "Kappa Lt Chain,Free/Lambda Lt Chain,Free", "setting": "[1]; LBDY 85", "result": 6.92, "unit": "RATIO"}, {"measurement": "Immunoglobulin G", "setting": "[1]; LBDY 85", "result": 28.9, "unit": "g/L"}, {"measurement": "Kappa Lt Chain,Free/Lambda Lt Chain,Free", "setting": "[1]; LBDY 115", "result": 6.82, "unit": "RATIO"}, {"measurement": "Immunoglobulin G", "setting": "[1]; LBDY 115", "result": 30.6, "unit": "g/L"}, {"measurement": "Kappa Lt Chain,Free/Lambda Lt Chain,Free", "setting": "[1]; LBDY 143", "result": 7.51, "unit": "RATIO"}, {"measurement": "Immunoglobulin G", "setting": "[1]; LBDY 143", "result": 29.6, "unit": "g/L"}, {"measurement": "Kappa Lt Chain,Free/Lambda Lt Chain,Free", "setting": "[1]; LBDY 171", "result": 8.26, "unit": "RATIO"}, {"measurement": "Immunoglobulin G", "setting": "[1]; LBDY 171", "result": 24.4, "unit": "g/L"}, {"measurement": "Kappa Lt Chain,Free/Lambda Lt Chain,Free", "setting": "[1]; LBDY 199", "result": 3.99, "unit": "RATIO"}, {"measurement": "Immunoglobulin G", "setting": "[1]; LBDY 199", "result": 40.2, "unit": "g/L"}, {"measurement": "Kappa Lt Chain,Free/Lambda Lt Chain,Free", "setting": "[1]; LBDY 227", "result": 5.42, "unit": "RATIO"}, {"measurement": "Immunoglobulin G", "setting": "[1]; LBDY 227", "result": 29.5, "unit": "g/L"}, {"measurement": "Kappa Lt Chain,Free/Lambda Lt Chain,Free", "setting": "[1]; LBDY 238", "result": 8.01, "unit": "RATIO"}, {"measurement": "Immunoglobulin G", "setting": "[1]; LBDY 238", "result": 32.9, "unit": "g/L"}, {"measurement": "Kappa Lt Chain,Free/Lambda Lt Chain,Free", "setting": "[1]; LBDY -6", "result": 31.47, "unit": "RATIO"}, {"measurement": "Immunoglobulin G", "setting": "[1]; LBDY -6", "result": 23.8, "unit": "g/L"}, {"measurement": "effect of BAK deletion on activity", "setting": "SU-DHL-1 cells", "result": "completely inhibited"}, {"measurement": "pEC50", "setting": "AMO-1 cells; AMO-1, individual determinations, read-out: Individual EC50", "result": "9.65 and 9.67 and 9.84 and 9.80 and 9.88 and 9.97 and 10.02 and 10.06 and 9.66 and 9.73"}, {"measurement": "Cell viability after compound washout (CellTiter-Glo)", "setting": "AMO-1 cells; 2hr + 22hr, Log Conc 1", "result": "0.4281 and 0.471 and 0.3421 and 0.36 and 0.84 and 0.79 and 0.71 and 0.8 and 2.671 and 3.13 and 2.51 and 2.629"}, {"measurement": "Cell viability after compound washout (CellTiter-Glo)", "setting": "AMO-1 cells; c49-c56, head empty, Log Conc 0.39794", "result": 0.4}, {"measurement": "pEC50", "setting": "AMO-1 cells; Homo sapiens, AMO1, 10% human serum, contact time 1 hr, washout, viability at 24 h, read-out: AMO-1 Mean EC50", "result": 7.50}, {"measurement": "EC90", "setting": "AMO-1 cells; Homo sapiens, AMO1, 10% human serum, contact time 2 hr, washout, viability at 24 h", "result": 174, "unit": "nM"}, {"measurement": "pEC50", "setting": "AMO-1 cells; Homo sapiens, AMO1, 10% human serum, contact time 2 hr, washout, viability at 24 h, read-out: AMO-1 Mean EC50", "result": 7.57}, {"measurement": "EC90", "setting": "AMO-1 cells; Homo sapiens, AMO1, 10% human serum, contact time 4 hr, washout, viability at 24 h", "result": 141, "unit": "nM"}, {"measurement": "pEC50", "setting": "AMO-1 cells; Homo sapiens, AMO1, 10% human serum, contact time 4 hr, washout, viability at 24 h, read-out: AMO-1 Mean EC50", "result": 7.76}, {"measurement": "EC90", "setting": "AMO-1 cells; Homo sapiens, AMO1, 10% human serum, contact time 6 hr, washout, viability at 24 h", "result": 114, "unit": "nM"}, {"measurement": "pEC50", "setting": "AMO-1 cells; Homo sapiens, AMO1, 10% human serum, contact time 6 hr, washout, viability at 24 h, read-out: AMO-1 Mean EC50", "result": 8.03}, {"measurement": "EC90", "setting": "AMO-1 cells; Homo sapiens, AMO1, 24 h, 10% human serum, contact time 24 hr", "result": 6.7, "unit": "nM"}, {"measurement": "pEC50", "setting": "AMO-1 cells; Homo sapiens, AMO1, 24 h, 10% human serum, contact time 24 hr, read-out: AMO-1 Mean EC50", "result": 9.15}, {"measurement": "EC50", "setting": "AMO-1 cells; Homo sapiens, AMO1, 24 h, read-out: AMO-1 EC50 (nM, 10% FBS), 10% FBS, 24 h continuous treatment", "result": 0.1, "unit": "nM"}, {"measurement": "EC50", "setting": "AMO-1 cells; Homo sapiens, AMO1, AMO-1, arithmetic mean, read-out: Arithmetic Mean EC50 nM", "result": 0.15, "unit": "nM"}, {"measurement": "EC50", "setting": "AMO-1 cells; Homo sapiens, AMO1, AMO-1, arithmetic mean, read-out: Arithmetic Mean EC50 µM", "result": 0.155, "unit": "nM"}, {"measurement": "EC50", "setting": "AMO-1 cells; Homo sapiens, AMO1, read-out: Individual EC50 µM, AMO-1, individual determinations", "result": 0.112, "unit": "nM"}, {"measurement": "EC50", "setting": "AMO-1 cells; read-out: AMO-1 EC50 (nM, 10% FBS), 10% FBS, 24 h continuous treatment", "result": 0.16, "unit": "nM"}, {"measurement": "EC50", "setting": "AMO-1 cells; read-out: Individual EC50 µM, AMO-1, individual determinations", "result": 0.122, "unit": "nM"}]}]}
